The values below are quoted from earlier work in patent US20050272804A1, “Methods of delaying Alzheimer's disease progression using a beta-amyloid precursor protein inhibitor and a HMG CoA reductase inhibitor” (priority 2004, published 2005).

The subject of data set [1] is brain extracellular acetylcholine (ACh). Conditions: striatal microdialysis, conscious freely-moving rats.
Another data set concerns Aβ. To be noted: Tg mice, 2.5 mg/kg, i.p.
The conditions of data set [2]: rats, i.v. dosing.
The test system of the next data set is neuronal NOS (nNOS). To be noted: Tg mice, 2.5 mg/kg, i.p., brain extracts.
A further data set deals with NOS. Conditions: Tg mice, 2.5 mg/kg, i.p., brain extracts.
The target in another data set is T1, AChE (Rattus norvegicus, UniProt P37136).
T1 construct: from tissue
T1 sequence (P37136 32-614): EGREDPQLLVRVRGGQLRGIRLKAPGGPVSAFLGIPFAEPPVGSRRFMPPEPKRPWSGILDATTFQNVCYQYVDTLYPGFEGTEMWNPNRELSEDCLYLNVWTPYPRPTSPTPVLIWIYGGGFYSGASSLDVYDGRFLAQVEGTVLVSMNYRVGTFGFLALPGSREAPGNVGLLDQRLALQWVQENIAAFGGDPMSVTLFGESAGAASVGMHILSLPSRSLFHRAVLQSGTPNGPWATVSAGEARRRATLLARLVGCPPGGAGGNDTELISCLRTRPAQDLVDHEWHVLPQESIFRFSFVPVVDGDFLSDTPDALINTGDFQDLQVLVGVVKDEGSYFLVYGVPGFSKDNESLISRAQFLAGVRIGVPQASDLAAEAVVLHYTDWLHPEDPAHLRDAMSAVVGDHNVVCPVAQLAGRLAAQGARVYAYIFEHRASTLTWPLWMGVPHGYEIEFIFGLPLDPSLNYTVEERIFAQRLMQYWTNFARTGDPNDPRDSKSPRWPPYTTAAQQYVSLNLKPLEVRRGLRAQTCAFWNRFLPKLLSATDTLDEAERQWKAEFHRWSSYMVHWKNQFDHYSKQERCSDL
Conditions: rats, after phenserine administration.

`CN1CC[C@@]2(C)c3cc(OC(=O)Nc4ccccc4)ccc3N(C)C12` (single isomer, unassigned) [phenserine]: the “rise in brain ACh levels” value in data set [1] is “greater than 3 fold”. Further, in the data set with Aβ, the “lowering of brain Aβ levels” value was “approximately 50%”. Also, in data set [2], the “brain drug levels relative to plasma” value is given as 10 fold. In addition, in data set [2] (brain and plasma), the “time to peak drug level” value is listed as no more than 5 min. Also, in the data set on neuronal NOS (nNOS), the “levels of nNOS protein” value is recorded as “increased”. In the data set on NOS, the “NOS activity, treated vs control Tg groups” value was “no significant difference”. Further, at AChE, the “half-life of AChE inhibition” value was greater than 8.25 h and the “inhibition of AChE” value is reported as greater than 70%.

In the case of `CN1CC[C@]2(C)c3cc(OC(=O)Nc4ccccc4)ccc3N(C)C12` (single isomer, unassigned; (+)) [(+)-Penserine], the anticholinesterase activity entry in the data set with cholinesterase is listed as “minimal”.
